Legend:
[1] = Half-life in plasma; type: in vitro ADME; conditions: unit inferred, unit assumed
[2] = tested on: Calpain-mediated breakdown of spectrin in platelets; experiment: Platelet membrane permeability assay; type: cell-based, rat; design: unit not given here; conditions: numeric value, unit not given
Experimental: Platelet membrane permeability assay. Calpain-mediated breakdown of spectrin was measured by quantitative densitometry of the calpain-specific 150/155 kDa spectrin fragment doublet [see Siman et al., Proc. Natl. Acad. Sci. USA 81, 3572-3576 (1984)]. Platelets were isolated by a modification of the method of Ferrell and Martin [J. Biol. Chem. 264, 20723-20729 (1989)]. Blood (15-20 ml) was drawn from male Sprague-Dawley rats into 1/10th volume of 100 mM EDTA-citrate, and centrifuged 10 minutes at 2000 rpm in a clinical centrifuge at room temperature. […] Platelets were washed once in 15 ml buffer 1, then resuspended to 10^7 cells/ml in buffer 2 (136 mM NaCl, 2.7 mM KCl, 0.42 mM NaH2 PO4, 12 mM NaHCO3, 2mM MgCl, 1 mg/ml BSA (Sigma), 5.6 mM glucose, 20 mM HEPES (Sigma) pH 7.4) and allowed to "rest" for a minimum of 10 minutes at room temperature before use.
Inhibitors were added from stock solutions made fresh in DMSO. 100 μl platelets, suspended to 10^7 cells/ml in buffer 2, were incubated with 1 μl of an inhibitor solution for 5 minutes at room temperature prior to the addition of 2 mM Ca^2+ and 1 uM A23 187. After 10 minutes total exposure to inhibitor (5 minutes exposure to ionophore) at room temperature, platelets were reisolated at 14,000 rpm for 10 sec in a Beckman microfuge, dissolved in SDS-PAGE sample buffer, and heated to 90° C. for 3 minutes.
Samples were subjected to SDS-PAGE in 4-12% gradient mini gels (Novex) and transferred to nitrocellulose (Schleicher and Schuell 0.45 um) by electroblotting. Filters were blocked for 10 minutes in 0.25% gelatin, 1% BSA, 0.25% triton X100, 0.9% NaCl, 10 mM Tris-Cl pH 7.5, incubated overnight in the same solution containing antibody to rat spectrin, washed 3×10 minutes with 10 mM Tris-Cl pH 7.5, 0.5% triton X100, incubated 4 hours in wash buffer plus alkaline phosphatase conjugated goat anti-rabbit antibody (Biorad), and washed as above. Blots were developed using the Biorad AP conjugate substrate kit. Quantitative densitometry was used to obtain values for the intact spectrin bands and the 150/155 kDa breakdown product doublet.

[3] = target: Calpain II from rabbit muscle; experiment: Inhibition of calpain II (Suc-Leu-Tyr-AMC hydrolysis); type: biochemical
Experimental: (§1) Materials and Methods. HEPES, heparin, and A23187 were obtained from Calbiochem. Suc-Leu-Tyr-AMC and chromogenic substrates were obtained from Sigma. Calpain I was purified from human erythrocytes according to the method of Kitahara (Kitahara et al., J. Biochem. 95, 1759-1766) omitting the Blue-Sepharose step. Calpain II from rabbit muscle and cathepsin B were purchased from Sigma. Papain was purchased from Calbiochem.
(§2) Assay of Inhibitory Potency. Peptide α-ketoamides were assayed as reversible enzyme inhibitors. Various concentrations of inhibitors in Me2 SO were added to the assay mixture which contained buffer and substrate. The reaction was started by the addition of the enzyme and the hydrolysis rates were followed spectrophotometrically or fluorimetrically.
(§3) Calpain I from human erythrocytes and calpain II from rabbit were assayed using Suc-Leu-Tyr-AMC [Sasaki et al., J. Biol. Chem. 259, 12489-12494 (1984); incorporated herein by reference], and the AMC (7-amino-4-methylcoumarin) release was followed fluorimetrically (excitation at 380 nm, and emmision at 460 nm). Calpains were assayed in 25 mM Tris pH=8.0, 10 mM CaCl2. Fluorescence was followed using a Gilson FL-1A fluorometer or a Perkin-Elmer 203 Fluorescence spectrometer. Cathepsin B was assayed in 20 mM sodium acetate pH=5.2, 0.5 mM dithiothreitol using Bz-Phe-Val-Arg-p-nitroanilide as substrate. Alternately, cathepsin B was assayed with Z-Arg-Arg-AFC [Barrett and Kirschke, Methods Enzymol. 80, 535-561 (1981); incorporated herein by reference], and the AFC (7-amino-4-trifluoromethylcoumarin) release was followed fluorimetrically (excitation at 400 nm and emmision at 505 nm). Papain was assayed in 100 mM KPO4, 1 mM EDTA, 2.5 mM cysteine pH=6.0 using Bz-Arg-AMC or Bz-Arg-NA [Kanaoka et al., Chem. Plmrm. Bull. 25, 3126-3128 (1977); incorporated herein by reference] as a substrate. The AMC (7-amino-4-methylcoumarin) release was followed fluorimetrically (excitation at 380 nm, and emmision at 460 nm). Enzymatic hydrolysis rates were measured at various substrate and inhibitor concentrations, and KI values were determined by either Lineweaver-Burk plots or Dixon plots.
(§4) A 0.1M Hepes, 0.5M NaCl, pH 7.5 buffer was utilized for human leukocyte elastase (HLE), porcine pancreatic elastase (PPE), chymotrypsin and cathepsin G. A 0.1 Hepes, 0.01M CaCl2, pH 7.5 buffer was utilized for trypsin, plasmin, and coagulation enzymes. A 50 mM Tris-HCl, 2 mM EDTA, 5 mM cysteine, pH 7.5 was used as a buffer for papain. A 88 mM KH2 PO4, 12 mM Na2 HPO4, 1.33 mM EDTA, 2.7 mM cysteine, pH 6.0 solution was used as a buffer for cathepsin B. A 20 mM Hepes, 10 mM CaCl2, 10 mM mercatoethanol, pH 7.2 buffer was utilized for calpain I and calpain II.

[4] = Half-life in liver; type: in vitro ADME; conditions: unit inferred, unit assumed
[5] = target: chymotrypsin (Bos taurus, UniProt P00766, DEL14-15/DEL147-148); experiment: Inhibition of chymotrypsin (Suc-Val-Pro-Phe-NA hydrolysis); type: biochemical, bovine
Experimental: as §2, §4
(§5) HLE and PPE were assayed with MeO-Suc-Ala-Ala-Pro-Val-NA and Suc-Ala-Ala-Ala-NA, respectively [Nakajima et al., J. Biol. Chem. 254, 4027-4032 (1979); incorporated herein by reference]. Human leukocyte cathepsin G and chymotrypsin Aα were assayed with Suc-Val-Pro-Phe-NA [Tanaka et al., Biochemistry 24, 2040-2047 (1985); incorporated herein by reference]. The hydrolysis of peptide 4-nitroanilides was measured at 410 nm [ε410 =8800 M^-1 cm^-1; Erlanger et al., Arch. Biochem. Biophys. 95, pp 271-278 (1961); incorporated herein by reference]. Trypsin, thrombin, human plasma kallikrein, porcine pancreatic kallikrein, human factor XIa, and human plasmin were assayed with Z-Arg-SBzl or Z-Gly-Arg-SBu-i [McRae et al., Biochemistry 20, 7196-7206 (1981); incorporated herein by reference]. All peptide thioester hydrolysis rates were measured with assay mixtures containing 4,4'-dithiodipyridine [ε324 =19800 M^-1 cm^-1; Grasetti & Murray, Arch. Biochem. Biophys. 119, 41-49 (1967); incorporated herein by reference].

[6] = target: cathepsin B; experiment: Inhibition of cathepsin B; type: biochemical; conditions: read-out: KI Cath B
Experimental: as §1, §2, §3, §4

[7] = target: porcine pancreatic elastase (PPE) (Sus scrofa, UniProt P00772); experiment: Inhibition of PP elastase (Suc-Ala-Ala-Ala-NA hydrolysis); type: biochemical
Experimental: as §2, §4, §5

Sequence of porcine pancreatic elastase (PPE) (P00772 27-266): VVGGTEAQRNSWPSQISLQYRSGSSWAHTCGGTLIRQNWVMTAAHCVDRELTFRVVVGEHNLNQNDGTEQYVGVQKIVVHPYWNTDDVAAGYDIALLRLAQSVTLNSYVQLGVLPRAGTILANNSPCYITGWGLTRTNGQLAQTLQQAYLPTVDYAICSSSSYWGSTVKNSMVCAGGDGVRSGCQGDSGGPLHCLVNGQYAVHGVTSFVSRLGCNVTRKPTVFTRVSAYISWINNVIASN

t 1/2 plasma [1] [h]	Ki [3] [µM]	t 1/2 liver [4] [h]	Ki [5] [µM]	Ki [6] [µM]	Ki [7] [µM]	SMILES	platelet (Activity in the Platelet Assay) [2]
0.417	–	–	–	–	–	CCOC(=O)C(=O)[C@H](CC)NC(=O)[C@H](CC(C)C)NC(=O)[C@H](CC(C)C)NC(=O)c1ccc2ccccc2c1 [2-NapCO--Leu--Leu--Abu--COOEt]	–
> 1	–	–	–	–	–	CCOC(=O)C(=O)C(CC)NC(=O)C(CC(C)C)NC(=O)C(CC(C)C)NS(=O)(=O)c1ccc2ccccc2c1 (stereo not drawn) [2-NapSO2--Leu--Leu--Abu--COOEt]	100
0.5	–	–	–	–	–	CCOC(=O)C(=O)[C@H](CC)NC(=O)[C@H](CC(C)C)NC(=O)[C@H](CC(C)C)NS(=O)(=O)c1ccc(C)cc1 [Tos--Leu--Leu--Abu--COOEt]	30
–	0.022	–	–	–	–	CC[C@H](NC(=O)[C@H](CC(C)C)NC(=O)OCc1ccccc1)C(=O)C(=O)NCCc1ccccc1 [Z--Leu--Abu--CONH--(CH2)2 --Ph, Z-Leu-Abu-CONH-(CH2)2 Ph]	–
–	0.078	–	–	–	–	CCC(NC(=O)C(CC(C)C)NC(=O)OCc1ccccc1)C(=O)C(=O)NCCO (stereo not drawn) [Z--Leu--Abu--CONH--(CH2)2 OH, Z-Leu-Abu-CONH-(CH2)2 OH]	–
–	0.041	–	–	–	–	CC[C@H](NC(=O)[C@H](CC(C)C)NC(=O)OCc1ccccc1)C(=O)C(=O)NCCCN1CCOCC1 [Z--Leu--Abu--CONH--(CH2)3 --Mpl, Z-Leu-Abu-CONH-(CH2)3 --N(CH2 CH2)2 O]	–
–	0.019	–	–	–	–	CCCCCCCCNC(=O)C(=O)[C@H](CC)NC(=O)[C@H](CC(C)C)NC(=O)OCc1ccccc1 [Z--Leu--Abu--CONH--(CH2)7 CH3, Z-Leu-Abu-CONH--(CH2)7 CH3]	–
> 1	0.35	> 1	> 300	2	–	CCC(NC(=O)C(CC(C)C)NC(=O)OCc1ccccc1)C(=O)C(=O)NCc1ccccc1 (stereo not drawn) [Z--Leu--Abu--CONH--Bzl, Z-Leu-Abu-CONH-Bzl]	1.5
> 1	0.14	–	> 300	4	40	CCC(NC(=O)C(CC(C)C)NC(=O)OCc1ccccc1)C(=O)C(=O)NCC(C)C (stereo not drawn) [Z--Leu--Abu--CONH--iBu, Z-Leu-Abu-CONH-iBu]	28
> 1	0.25	> 1	> 300	8	2	CCCNC(=O)C(=O)[C@H](CC)NC(=O)[C@H](CC(C)C)NC(=O)OCc1ccccc1 [Z--Leu--Abu--CONH--nPr, Z-Leu-Abu-CONH-nPr]	70
0.0467	–	–	–	–	–	CCOC(=O)C(=O)[C@H](CC)NC(=O)[C@H](CC(C)C)NC(=O)OCc1ccccc1 [Z--Leu--Abu--COOEt]	42
> 1	–	> 1	–	–	–	CCC(NC(=O)C(CC(C)C)NC(=O)OCc1ccccc1)C(=O)C(=O)O (stereo not drawn) [Z--Leu--Abu--COOH]	8
–	–	–	–	–	–	CCCCOC(=O)C(=O)[C@H](CC)NC(=O)[C@H](CC(C)C)NC(=O)OCc1ccccc1 [Z--Leu--Abu--COOn--Bu]	28
–	–	–	–	–	–	CCOC(=O)C(=O)C(CC)NC(=O)C(CC(C)C)NC(=O)C(CC(C)C)NC(=O)OCc1ccccc1 (stereo not drawn) [Z--Leu--Leu--Abu--COOEt]	40
0.0617	–	–	–	–	–	CCCCC(NC(=O)C(CC(C)C)NC(=O)OCc1ccccc1)C(=O)C(=O)OCC (stereo not drawn) [Z--Leu--Nle--COOEt]	20
0.0467	–	–	–	–	–	CCCC(NC(=O)C(CC(C)C)NC(=O)OCc1ccccc1)C(=O)C(=O)OCC (stereo not drawn) [Z--Leu--Nva--COOEt]	40
> 1	0.024	–	–	–	–	CC(C)C[C@H](NC(=O)OCc1ccccc1)C(=O)N[C@@H](Cc1ccccc1)C(=O)C(=O)NCCc1ccccc1 [Z--Leu--Phe--CONH(CH2)2 Ph, Z-Leu-Phe-CONH-(CH2)2 Ph]	3.0
–	0.046	–	–	–	–	CC(C)C[C@H](NC(=O)OCc1ccccc1)C(=O)N[C@@H](Cc1ccccc1)C(=O)C(=O)NCc1ccccc1 [Z--Leu--Phe--CONH--Bzl, Z-Leu-Phe-CONH-Bzl]	–
> 1	0.065	–	24	4	–	CC(C)CNC(=O)C(=O)[C@H](Cc1ccccc1)NC(=O)[C@H](CC(C)C)NC(=O)OCc1ccccc1 [Z--Leu--Phe--CONH--iBu, Z-Leu-Phe-CONH-iBu]	22
> 1	0.028	> 1	8	3	> 100	CCCCNC(=O)C(=O)C(Cc1ccccc1)NC(=O)C(CC(C)C)NC(=O)OCc1ccccc1 (stereo not drawn) [Z--Leu--Phe--CONH--nBu, Z-Leu-Phe-CONH-nBu]	38
0.13	–	–	–	–	–	CCOC(=O)C(=O)C(Cc1ccccc1)NC(=O)C(CC(C)C)NC(=O)OCc1ccccc1 (stereo not drawn) [Z--Leu--Phe--COOEt, Z-Leu-Phe-COOEt]	42
> 1	–	> 1	–	–	–	CC(C)CC(NC(=O)OCc1ccccc1)C(=O)NC(Cc1ccccc1)C(=O)C(=O)O (stereo not drawn) [Z--Leu--Phe--COOH]	6.5
